# Assay results reported in patent publication US11234943B2, “Use of reservatrol for the treatment of non-alcoholic fatty liver disease (NAFLD)” (priority 2016, dated 2022).
# Values joined by “and” are separate entries in the source; they are usually repeats but may differ in a detail not shown here. Equal entries are not always repeated.
# Key:
# patients with NAFLD [1] = test: Blood tests in 6-month study of NAFLD patients given resveratrol micronized formulation; format: in vivo, human; set-up: unit not given here; settings: Group B, 200 mg once daily, mean at time 2 (6 months)
# Experimental: In this study. 50 mg or 200 mg RSV daily were supplemented to the standard treatment of 44 patients with NAFLD for a period of 6 months and the therapeutic efficacy of RSV was investigated. All patients who participated in this process were volunteers and they have provided written consents as well filled out all the required documents. The patients were selected after they were firstly diagnosed with non-alcoholic fatty liver disease. The primary inclusion criterion was evidence of tatty liver on ultrasonography (LS), which is the most commonly, used imaging technique with remarkable sensitivity. The US findings in non-alcoholic fatty liver disease are:
# Participants underwent clinical examination, electrocardiogram and abdominal ultrasound. Also, blood tests were carried out and the following parameters were measured: serum glutamic pyruvic transaminase (SGPT), serum glutamic oxaloacetic transaminase (SGOT), Alkaline phosphatase (ALP), gamma-glutamyl transpeptidase (gGT), glucose, total cholesterol levels, high-density lipoprotein (HDL), low-density lipoprotein (LDL), triglycerides (TG), insulin, insulin resistance, liver value, liver depth, kidney value, kidney depth and difference liver-kidney values.
# (§1) Then, the patients were divided into two groups (randomly assigned) according to the treatment given to them. 22 patients were given treatment 50 mg RSV micronized formulation, Evelor capsules once daily, (Group A) and 22 patients were given treatment 200 mg RSV micronized formulation, Evelor capsules, once daily, (Group B). The observation period lasted for 6 months. There was a clinical examination, blood tests and an abdominal ultrasound at the beginning of the study (time 1) and in 6 months (time 2). All patients were on low fat diet and they were being followed up by nutritionist.
# Two-way ANOVA with interaction (time and group) was used to test whether there are differences among dose levels, time levels and possible interaction among them. However, no significant interactions were discovered and standard two-way ANOVA was used without interactions. Moreover, an independent t-test was conducted to examine whether there were any differences between the values of physiological parameters at the beginning and the end of the study. A p-value<0.001 was considered to indicate a strongly statistically significant difference. The statistical program used was R 3.2.1.
# patients with NAFLD [2] = test: Quantitative ultrasound liver/kidney echo measurement (liver fat), hepatic/renal value; format: in vivo, human; set-up: key to Difference (Liver Value − Kidney Value): hepatic minus renal cortex mean gray scale (US hepatic/renal value); key to Liver Value / Kidney Value: mean gray scale value of pixels within the ROI (echo intensity)
# Description: A GE Log IQ5 expert Ultrasound Machine equipped with Ultrasound Transducer Probe (GE 3.5C model 2050357) The equipment can measure the Echo Level (EL) at specific areas and depths. EL measures the mean intensity of pixels within a user defined area (region of interest). Raw data provides the average sum (intensity per pixel)/pixels. The ultrasound depicts on screen the area (in cm^2), mean (intensity dB) and standard deviation (dispersion) Phantom Model 040GSE (CIRS-Multi Purpose, Multi Tissue u/s Phantom) to calibrate the Log IQ. The specific phantom simulates the human liver and kidney organs and serves for calibration.
# Regarding the parameters “liver/kidney value” and “liver/kidney depth” we used the same methodology used by Ming-Feng Xia et al., Standardized Ultrasound Hepatic/Renal Ratio and Hepatic Attenuation Rate to Quantify Liver Fat Content: An Improvement Method 10.1038/oby.2011.302.
# Ultrasound studies were performed by an experienced radiologist who was unaware of the patient's clinical details and laboratory findings. All the instrument settings, including gain and depth were fixed for each measurement. For assessment of ultrasound hepatic/renal echo value, ultrasound images with both liver and right kidney clearly visualized were obtained in the sagittal liver/right kidney view in the lateral position. A region of interest (ROI) was carefully selected excluding blood vessels, bile ducts and other focal hypoechoic or hyperechoic regions. Another ROI was identified in the right renal cortex with no large vessels, renal sinus or medulla. To avoid the interference of depth-depended echo-intensity attenuation and the borderline echo distorting effects, the boundary between liver and right kidney area should be placed near the center of the image, and the liver and right kidney ROIs were selected at the same depth of the ultrasound images. The gray scale mean value of the pixels within the two ROIs was used as measurement of echo intensity then we subtracted the average hepatic gray scale by the average renal cortex gray scale to calculate the US hepatic/renal value.
# Standardization of ultrasound quantitative parameters was performed using an abdominal phantom.
# Attenuation measurements were taken at 2 depths, at the Regions of Interest (ROI) xxcm (liver) and yycm (kidney). Attenuation was calculated by subtracting the EL (liver)−EL (kidney)=Hepato-Renal Index Difference.
# In sagittal liver/right kidney view, a region of interest (ROI) of 1.5×1.5 cm (1,296 pixels) in the liver parenchyma was selected. The ROI had to be as uniform as possible, excluding blood vessels, bile ducts, and other focal hypo/hyper-echogenicity. Another ROI of 0.5×0.5 cm (144 pixels) was identified in the right renal cortex with no large vessels, renal sinus or medulla. To avoid the interference of depth-depended echo-intensity attenuation and the borderline echo distorting effects, the boundary between liver and right kidney area should be placed near the center of the image, and the liver and right kidney ROIs were selected at the same depth of the ultrasound images. The gray scale mean value of the pixels within the two ROIs was used as measurement of echo intensity. Then we subtracted the average hepatic gray scale by the average renal cortex gray scale to calculate the US hepatic/renal value.
# To standardize the measured values of US H/R value and hepatic echo-intensity attenuation rate among different ultrasound machines, a 3D abdominal phantom, containing mimic abdominal organs, was used for standardization in this research.
# Then, the patients were divided into two groups (randomly assigned) according to the treatment given to them. 22 patients were given treatment 50 mg RSV micronized formulation, Evelor capsules once daily, (Group A) and 22 patients were given treatment 200 mg RSV micronized formulation, Evelor capsules, once daily, (Group B). The observation period lasted for 6 months. […]
# NAFLD patients = settings: meta-analysis of four trials, 156 patients, cited from earlier work
# patients with NAFLD [3] = test: Adverse reactions during the 6-month study; format: in vivo, human; settings: 50 mg or 200 mg once daily, 6 months
# Experimental: Quantitative fat measurement, with ultrasound on the liver and kidney, were carried out. There was an initial measurement (time 1) and one after six months (time 2). […] As will be apparent, the results were highly positive, see the difference (Liver value Kidney Value) which is decreased during the time, even 2.5 years after the end of the study.
# as §1
# [4] = Group A, 50 mg once daily, mean at time 1 (beginning of study)
# [5] = Group A, 50 mg once daily, mean at time 2 (6 months)
# [6] = Group B, 200 mg once daily, mean at time 1 (beginning of study)
# [7] = Group B, 200 mg once daily, mean at time 2 (6 months)
# [8] = individual patients of Group A (50 mg), first ultrasound, 0 month
# [9] = individual patients of Group A (50 mg), fourth ultrasound, 2.5 years from the end of the study
# [10] = individual patients of Group A (50 mg), second ultrasound, 6 months
# [11] = individual patients of Group A (50 mg), third ultrasound, 6 months after the end of the study
# [12] = individual patients of Group B (200 mg), first ultrasound, 0 month
# [13] = individual patients of Group B (200 mg), fourth ultrasound, 2.5 years from the end of the study
# [14] = individual patients of Group B (200 mg), second ultrasound, 6 months
# [15] = individual patients of Group B (200 mg), third ultrasound, 6 months after the end of the study
structure (smiles),measurement,setting,value
"Oc1ccc(/C=C/c2cc(O)cc(O)c2)cc1 [Resveratrol, resveratrol]",Insulin,patients with NAFLD [1],13.01
same,Insulin Resistance,patients with NAFLD [1],1489.52
same,LDL,patients with NAFLD [1],105.95
same,SGOT,patients with NAFLD [1],30.90
same,SGPT,patients with NAFLD [1],41.70
same,TG,patients with NAFLD [1],167.80
same,gGT,patients with NAFLD [1],25.35
same,Difference L − K value,patients with NAFLD [2]; [4],22.71
same,Kidney Value,patients with NAFLD [2]; [4],32.49
same,Liver Value,patients with NAFLD [2]; [4],55.20
same,Difference L − K value,patients with NAFLD [2]; [5],17.00
same,Kidney Value,patients with NAFLD [2]; [5],28.42
same,Liver Value,patients with NAFLD [2]; [5],45.42
same,Difference L − K value,patients with NAFLD [2]; [6],26.46
same,Kidney Value,patients with NAFLD [2]; [6],32.30
same,Liver Value,patients with NAFLD [2]; [6],58.77
same,Difference L − K value,patients with NAFLD [2]; [7],18.115
same,Kidney Value,patients with NAFLD [2]; [7],25.21
same,Liver Value,patients with NAFLD [2]; [7],43.33
same,liver fat as evidenced by ultrasound measurements,"patients with NAFLD [2]; groups A and B, end of the study",strongly statistically significant reduction
same,Difference (Liver Value − Kidney Value),patients with NAFLD [2]; [8],14.6 and 32.9 and 20.1 and 23.3 and 43.7 and 34.3
same,Kidney Value,patients with NAFLD [2]; [8],30.4 and 35.0 and 25.3 and 32.6 and 52.4 and 7.0
same,Liver Value,patients with NAFLD [2]; [8],45.0 and 67.9 and 45.4 and 55.9 and 96.1 and 41.3
same,Difference (Liver Value − Kidney Value),patients with NAFLD [2]; [9],5.5 and 9.8
same,Kidney Value,patients with NAFLD [2]; [9],75.0 and 75.2
same,Liver Value,patients with NAFLD [2]; [9],80.5 and 85.0
same,Difference (Liver Value − Kidney Value),patients with NAFLD [2]; [10],12.8 and 29.5 and 11.8 and 19 and 18.5 and 20.9
same,Kidney Value,patients with NAFLD [2]; [10],29.2 and 26.4 and 20.1 and 30.8 and 26.5 and 21.0
same,Liver Value,patients with NAFLD [2]; [10],42.0 and 55.9 and 31.9 and 49.8 and 45.0 and 41.9
same,Difference (Liver Value − Kidney Value),patients with NAFLD [2]; [11],16.7 and 10.3 and 24.4 and 1.6 and 17.6 and 9.4
same,Kidney Value,patients with NAFLD [2]; [11],81.1 and 60.0 and 64.5 and 57.3 and 67.6 and 48.1
same,Liver Value,patients with NAFLD [2]; [11],97.8 and 70.3 and 88.9 and 58.9 and 85.2 and 57.5
same,Difference (Liver Value − Kidney Value),patients with NAFLD [2]; [12],28.2 and 35.5 and 32.3 and 47.3 and 24.1 and 20.5 and 41 and 18.8
same,Kidney Value,patients with NAFLD [2]; [12],32.2 and 26.5 and 23.6 and 39.5 and 22.7 and 14.2 and 28.6 and 33.3
same,Liver Value,patients with NAFLD [2]; [12],60.4 and 62.0 and 55.9 and 86.8 and 46.8 and 34.7 and 69.6 and 52.1
same,Difference (Liver Value − Kidney Value),patients with NAFLD [2]; [13],7.9 and 5 and 17.3
same,Kidney Value,patients with NAFLD [2]; [13],31.2 and 41.0 and 42.8
same,Liver Value,patients with NAFLD [2]; [13],39.1 and 46.0 and 60.1
same,Difference (Liver Value − Kidney Value),patients with NAFLD [2]; [14],14.8 and 23.9 and 19 and 34.2 and 22.2 and 7.4 and 33.5 and 16.4
same,Kidney Value,patients with NAFLD [2]; [14],33.0 and 22.1 and 31.1 and 18.9 and 14.4 and 42.4 and 17.0 and 16.8
same,Liver Value,patients with NAFLD [2]; [14],47.8 and 46.0 and 50.1 and 53.1 and 36.6 and 49.8 and 50.5 and 33.2
same,Difference (Liver Value − Kidney Value),patients with NAFLD [2]; [15],13.2 and 8.9 and 22.1 and 10 and 18.3 and 13.7 and 6 and 16.8
same,Kidney Value,patients with NAFLD [2]; [15],61.7 and 53.0 and 55.2 and 84.3 and 55.9 and 71.5 and 75.3 and 40.4
same,Liver Value,patients with NAFLD [2]; [15],74.9 and 61.9 and 77.3 and 94.3 and 74.2 and 85.2 and 81.3 and 57.2
same,"total cholesterol, mean difference (MD) vs placebo","NAFLD patients; 95% CI: 0.18, 0.80, higher in resveratrol groups",0.49
same,"low-density lipoprotein, mean difference (MD) vs placebo","NAFLD patients; 95% CI: 0.21, 0.74, higher in resveratrol groups",0.47
same,effects on attenuating NAFLD,NAFLD patients,negligible effects
same,adverse reactions (side effects),patients with NAFLD [3],No adverse reactions (side effects) were noted
